Test results taken from publication PMC7004565, “Nucleotide inhibition of the pancreatic ATP-sensitive K^+ channel explored with patch-clamp fluorometry” (eLife, 2020).
Values joined by “and” are separate entries in the source; they are usually repeats but may differ in a detail not shown here. Equal entries are not always repeated.

Target: Kir6.2*,C166S-GFP + SUR1 (Homo sapiens, UniProt Q14654, C166S)
Experiment: FRET (ANAP quenching) nucleotide binding in unroofed membranes
Design: ANAP labelling is specific and only full-length Kir6.2 is expressed at the cell membrane; expressed in transfected cells; host or cells: HEK-293T
Settings: Hill fit
Excerpt: To measure nucleotide binding, cells transfected with Kir6.2*-GFP + SUR1 were briefly sonicated, leaving behind unroofed plasma membrane fragments ([Heuser, 2000]; [Zagotta et al., 2016]; [Puljung et al., 2019]) containing ANAP-labelled KATP channels with the intracellular nucleotide-binding sites exposed to the bath solution. The sample was excited with a 385 nm LED and emitted fluorescence from the membrane fragments was passed through a spectrometer, allowing us to separate ANAP, GFP, and TNP-ATP fluorescence by peak wavelength (Figure 1E,F). As expected from FRET, increasing the concentration of TNP-ATP caused a decrement in the ANAP peak at 472 nm and a concomitant increase in the TNP-ATP peak at 561 nm (Figure 1F). We used the quenching of the ANAP peak as a direct measure of TNP-ATP binding as this signal was specific to KATP. In contrast, the peak TNP-ATP fluorescence may include contributions from both specific and non-specific nucleotide binding, as well as direct excitation of TNP-ATP in solution by the 385 nm excitation light. Due to the sharp cut-off of the GFP emission spectrum at shorter wavelengths, our measurements of peak ANAP fluorescence were unaffected by the presence of the GFP tag on Kir6.2.
Epifluorescence imaging and spectroscopy were performed using a Nikon Eclipse TE2000-U microscope with a 60x water immersion objective (Plan Apo VC, NA = 1.2, Nikon; Kingston upon Thames, UK) or a 100x oil immersion objective (Nikon, Apo TIRF, NA = 1.49). […] Fluorescence spectra were collected by exciting ANAP as above but using a 400 nm long-pass emission filter (ThorLabs), then passing emitted light through an IsoPlane 160 Spectrometer (Princeton Instruments; Trenton, NJ) with a 300 grooves mm^-1 grating. […]
Unroofed membranes were prepared as described previously ([Heuser, 2000]; [Zagotta et al., 2016]; [Puljung et al., 2019]). […] Unroofed membrane fragments were nearly invisible in bright-field images and identified by their GFP and ANAP fluorescence. […]
Fluorescence spectra were collected as described above. […]

Chain of Kir6.2*,C166S-GFP + SUR1 (Q14654 whole entry C166S): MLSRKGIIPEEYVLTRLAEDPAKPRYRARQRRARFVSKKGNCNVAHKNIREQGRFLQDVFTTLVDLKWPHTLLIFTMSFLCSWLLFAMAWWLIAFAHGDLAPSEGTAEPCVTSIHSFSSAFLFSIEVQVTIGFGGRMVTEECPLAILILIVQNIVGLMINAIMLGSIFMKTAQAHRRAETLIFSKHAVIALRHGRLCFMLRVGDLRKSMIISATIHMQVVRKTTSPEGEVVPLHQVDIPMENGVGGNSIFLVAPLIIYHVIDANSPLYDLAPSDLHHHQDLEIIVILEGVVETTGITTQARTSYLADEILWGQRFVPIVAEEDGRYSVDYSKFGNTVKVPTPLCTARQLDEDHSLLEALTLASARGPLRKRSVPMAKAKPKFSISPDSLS
Chain of Kir6.2*,C166S-GFP + SUR1 (Q09428 whole entry partner): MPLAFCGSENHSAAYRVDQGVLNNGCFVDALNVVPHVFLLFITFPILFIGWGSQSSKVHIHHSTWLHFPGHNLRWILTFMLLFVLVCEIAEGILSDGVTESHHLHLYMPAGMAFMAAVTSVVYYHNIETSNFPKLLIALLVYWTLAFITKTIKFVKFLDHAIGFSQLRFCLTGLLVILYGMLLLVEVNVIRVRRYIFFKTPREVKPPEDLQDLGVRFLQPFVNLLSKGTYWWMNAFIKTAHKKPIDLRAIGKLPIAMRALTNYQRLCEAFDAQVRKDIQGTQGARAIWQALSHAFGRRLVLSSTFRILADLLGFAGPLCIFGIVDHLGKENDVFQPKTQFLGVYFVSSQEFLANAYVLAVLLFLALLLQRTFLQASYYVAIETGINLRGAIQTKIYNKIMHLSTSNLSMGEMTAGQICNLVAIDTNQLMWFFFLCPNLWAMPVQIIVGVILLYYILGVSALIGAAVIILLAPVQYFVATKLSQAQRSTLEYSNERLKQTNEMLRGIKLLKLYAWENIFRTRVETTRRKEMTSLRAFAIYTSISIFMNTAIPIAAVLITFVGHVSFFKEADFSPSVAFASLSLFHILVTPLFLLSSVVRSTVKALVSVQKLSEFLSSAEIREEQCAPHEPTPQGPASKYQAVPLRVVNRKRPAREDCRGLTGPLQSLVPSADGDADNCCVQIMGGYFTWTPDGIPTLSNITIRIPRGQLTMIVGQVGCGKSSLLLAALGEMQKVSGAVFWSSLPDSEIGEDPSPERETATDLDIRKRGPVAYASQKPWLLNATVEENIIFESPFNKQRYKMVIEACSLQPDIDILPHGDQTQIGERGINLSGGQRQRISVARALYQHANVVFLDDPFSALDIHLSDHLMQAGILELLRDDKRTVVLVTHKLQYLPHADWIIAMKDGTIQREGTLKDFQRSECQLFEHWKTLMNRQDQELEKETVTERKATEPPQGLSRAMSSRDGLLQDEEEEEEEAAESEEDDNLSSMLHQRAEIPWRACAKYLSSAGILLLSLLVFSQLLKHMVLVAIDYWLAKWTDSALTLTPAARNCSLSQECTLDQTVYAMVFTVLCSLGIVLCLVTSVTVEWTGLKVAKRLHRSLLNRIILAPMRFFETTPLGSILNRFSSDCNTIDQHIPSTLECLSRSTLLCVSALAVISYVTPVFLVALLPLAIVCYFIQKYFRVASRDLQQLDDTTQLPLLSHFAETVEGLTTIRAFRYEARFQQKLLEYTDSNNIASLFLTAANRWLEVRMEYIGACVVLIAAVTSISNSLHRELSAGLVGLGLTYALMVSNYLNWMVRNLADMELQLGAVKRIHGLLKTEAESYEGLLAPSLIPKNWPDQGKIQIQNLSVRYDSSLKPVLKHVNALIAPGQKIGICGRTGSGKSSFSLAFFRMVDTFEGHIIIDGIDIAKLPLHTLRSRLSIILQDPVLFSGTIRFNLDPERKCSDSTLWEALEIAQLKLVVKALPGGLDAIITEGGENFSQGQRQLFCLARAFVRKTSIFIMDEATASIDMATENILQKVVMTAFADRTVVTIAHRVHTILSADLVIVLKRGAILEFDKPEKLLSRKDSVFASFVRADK

Structure (SMILES): Nc1ncnc2c1ncn2[C@@H]1O[C@H](COP(=O)(O)OP(=O)(O)OP(=O)(O)O)[C@H]2OC3(O[C@H]21)C([N+](=O)[O-])=CC(=[N+]([O-])[O-])C=C3[N+](=O)[O-] (stereo partly drawn) [TNP-ATP, trinitrophenyl-ATP]
- h (Hill coefficient) fluorescence quenching: 0.92
- Emax (fraction, read-out: Emax fluorescence quenching): 96%
- EC50 (n = 12, read-out: EC50 fluorescence quenching): 32 µM and 31.6 µM
